Data taken from publication PMC12179037, “Degradation of beechwood xylan using food-grade bacteria-like particles displaying β-xylosidase from Limosilactobacillus fermentum” (Bioresources and Bioprocessing, 2025).

Molecular target: T1, Xyl-L-CshA (LfXyl43 β-xylosidase with C-terminal CshA anchor) (Limosilactobacillus fermentum, UniProt Z9FCD9CVP2)
T1 construct: LfXyl43 fused through (GGGGS)3 linker to C-terminal surface anchor CshA of Lactiplantibacillus plantarum SK156; 6xHis tag; pET21b(+), E. coli BL21(DE3)
T1 sequence (Z9FCD9CVP2 1-551): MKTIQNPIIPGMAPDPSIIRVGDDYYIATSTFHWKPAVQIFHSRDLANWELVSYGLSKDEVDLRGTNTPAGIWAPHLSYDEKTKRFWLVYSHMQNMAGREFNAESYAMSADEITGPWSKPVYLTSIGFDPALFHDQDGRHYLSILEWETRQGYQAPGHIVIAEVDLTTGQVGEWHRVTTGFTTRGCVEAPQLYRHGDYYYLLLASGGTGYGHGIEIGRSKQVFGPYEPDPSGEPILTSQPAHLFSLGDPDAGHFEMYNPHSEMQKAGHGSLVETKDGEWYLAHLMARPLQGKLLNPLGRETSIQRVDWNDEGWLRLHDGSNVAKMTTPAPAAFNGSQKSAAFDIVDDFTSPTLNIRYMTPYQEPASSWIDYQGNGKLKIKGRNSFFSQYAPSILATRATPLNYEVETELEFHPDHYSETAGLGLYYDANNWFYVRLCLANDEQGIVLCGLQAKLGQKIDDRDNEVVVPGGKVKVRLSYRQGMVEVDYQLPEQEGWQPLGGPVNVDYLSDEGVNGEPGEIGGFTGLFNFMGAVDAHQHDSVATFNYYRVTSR
Assay: reducing sugar release (DNSA, […] nm); TLC
Format: biochemical
Conditions: purified fusion protein immobilised on bacteria-like particles; 2 mM substrate; 50 mM sodium phosphate pH 7.0; 35 °C; 5 min

For `OC1OC[C@@H](O[C@@H]2OC[C@@H](O)[C@H](O)[C@H]2O)[C@H](O)[C@H]1O` (stereo partly shown) [xylobiose], which “reducing sugar release (DNSA, 540 nm); TLC” value is on record?
Its value is “CshA-L-Xyl and Xyl-L-CshA (i.e., with linker peptide) had higher catalytic activity towards all XOS substrates”.
